This is an account of results in US7981903B2, “2-[2-{phenylamino}-1H-pyrrolo[2,3-D]pyrimidin-4-yl)amino] benzamide derivatives as IGF-1R inhibitors for the treatment of cancer” (GlaxoSmithKline LLC, priority 2007, dated 2011).

The target in one assay is T1, human IR (hIR) (Homo sapiens, UniProt P06213).
T1 construct: containing amino acid residues 979-1382 of human IR; made in house; host or cells: Sf9 cells (baculovirus), same process as hIGF1R
Nature of the assay: TR-FRET kinase assay of purified hIR. It counts as biochemical. The following applies: activated hIR 0.5 nM, 10 μM ATP, values given as pIC50 category. On the technique in general: Time-resolved FRET reads energy transfer from a long-lived donor to a nearby acceptor.

Assay [1] deals with T2, NIH-3T3 cells overexpressing human IR (Homo sapiens, UniProt P06213).
T2 construct: expressed in transfected cells; host or cells: NIH-3T3 (mouse fibroblasts)
The experiment in a line: IR cellular autophosphorylation (DELFIA). The following applies: 2 h compound, insulin 3 ug/ml for 15 minutes, IC50 category. It counts as cell-based. A digest of the protocol: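 Receptor autophosphorylation measured by DELFIA, capturing IGF-1R or IRβ and detecting with europium anti-pTyr, reported as percent of IGF-1- or insulin-stimulated signal. Compounds (30 uM to 1.5 nM) added 2 h before ligand, then 15 min stimulation (IGF-1 30 ng/ml or insulin 3 ug/ml).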

The next assay deals with T3, human IGF1R (hIGF1R) (Homo sapiens, UniProt P08069).
T3 construct: containing amino acid residues 957-1367 of human IGF1R; made in house; host or cells: Sf9 cells (baculovirus)
Nature of the assay: TR-FRET kinase assay of purified hIGF1R. The assay is classed as biochemical. The following applies: activated hIGF1R 0.5 nM, 10 μM ATP, values given as pIC50 category, read-out: IGF-1R pIC50 (converted).

T2 sequence (P06213 28-1382): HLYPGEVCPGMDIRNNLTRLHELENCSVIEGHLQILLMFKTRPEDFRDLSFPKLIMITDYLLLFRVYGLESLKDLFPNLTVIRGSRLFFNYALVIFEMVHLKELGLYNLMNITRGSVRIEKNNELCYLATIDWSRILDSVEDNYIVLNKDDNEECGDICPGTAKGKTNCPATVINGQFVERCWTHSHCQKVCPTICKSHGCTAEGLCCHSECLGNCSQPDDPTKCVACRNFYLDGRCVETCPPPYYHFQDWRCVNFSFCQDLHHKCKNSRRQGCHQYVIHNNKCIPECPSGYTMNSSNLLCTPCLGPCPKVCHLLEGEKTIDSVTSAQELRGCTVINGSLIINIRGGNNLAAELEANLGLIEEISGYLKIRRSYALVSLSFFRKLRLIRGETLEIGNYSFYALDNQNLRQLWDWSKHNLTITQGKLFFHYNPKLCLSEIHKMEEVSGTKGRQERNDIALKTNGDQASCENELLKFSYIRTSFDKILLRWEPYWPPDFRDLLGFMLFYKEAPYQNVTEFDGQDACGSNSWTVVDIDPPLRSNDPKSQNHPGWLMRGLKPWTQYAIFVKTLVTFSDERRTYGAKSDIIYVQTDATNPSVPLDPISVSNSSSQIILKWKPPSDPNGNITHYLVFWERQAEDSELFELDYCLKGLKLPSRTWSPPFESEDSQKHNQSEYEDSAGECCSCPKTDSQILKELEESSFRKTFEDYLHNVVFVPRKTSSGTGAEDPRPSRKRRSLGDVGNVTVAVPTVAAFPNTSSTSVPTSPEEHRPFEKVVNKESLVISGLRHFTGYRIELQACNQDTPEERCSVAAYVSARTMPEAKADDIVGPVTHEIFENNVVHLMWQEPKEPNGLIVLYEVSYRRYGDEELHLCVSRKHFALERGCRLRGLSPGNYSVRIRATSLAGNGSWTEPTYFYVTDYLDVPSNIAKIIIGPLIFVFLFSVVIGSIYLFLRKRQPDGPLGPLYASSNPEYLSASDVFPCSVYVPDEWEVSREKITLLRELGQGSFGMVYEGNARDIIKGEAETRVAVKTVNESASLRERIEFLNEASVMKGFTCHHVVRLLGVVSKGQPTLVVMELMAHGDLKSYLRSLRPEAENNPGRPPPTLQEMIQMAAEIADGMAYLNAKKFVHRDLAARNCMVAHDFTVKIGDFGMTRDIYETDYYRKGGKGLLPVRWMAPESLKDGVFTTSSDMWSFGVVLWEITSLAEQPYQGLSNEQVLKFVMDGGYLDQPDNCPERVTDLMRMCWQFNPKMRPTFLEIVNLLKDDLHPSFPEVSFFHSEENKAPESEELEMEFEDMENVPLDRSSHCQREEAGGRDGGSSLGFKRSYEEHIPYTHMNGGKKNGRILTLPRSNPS
T3 sequence (P08069 957-1367): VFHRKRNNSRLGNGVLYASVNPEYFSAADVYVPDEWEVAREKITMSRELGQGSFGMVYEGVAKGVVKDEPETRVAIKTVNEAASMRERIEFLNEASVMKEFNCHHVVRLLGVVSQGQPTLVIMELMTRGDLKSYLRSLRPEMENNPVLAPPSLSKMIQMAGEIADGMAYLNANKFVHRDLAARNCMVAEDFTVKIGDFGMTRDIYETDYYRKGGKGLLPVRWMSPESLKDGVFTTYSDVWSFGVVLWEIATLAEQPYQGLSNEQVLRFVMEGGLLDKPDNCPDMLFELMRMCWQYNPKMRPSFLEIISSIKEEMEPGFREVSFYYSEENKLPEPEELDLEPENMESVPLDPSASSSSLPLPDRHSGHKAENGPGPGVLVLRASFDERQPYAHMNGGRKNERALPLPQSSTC
T1 sequence (P06213 979-1382): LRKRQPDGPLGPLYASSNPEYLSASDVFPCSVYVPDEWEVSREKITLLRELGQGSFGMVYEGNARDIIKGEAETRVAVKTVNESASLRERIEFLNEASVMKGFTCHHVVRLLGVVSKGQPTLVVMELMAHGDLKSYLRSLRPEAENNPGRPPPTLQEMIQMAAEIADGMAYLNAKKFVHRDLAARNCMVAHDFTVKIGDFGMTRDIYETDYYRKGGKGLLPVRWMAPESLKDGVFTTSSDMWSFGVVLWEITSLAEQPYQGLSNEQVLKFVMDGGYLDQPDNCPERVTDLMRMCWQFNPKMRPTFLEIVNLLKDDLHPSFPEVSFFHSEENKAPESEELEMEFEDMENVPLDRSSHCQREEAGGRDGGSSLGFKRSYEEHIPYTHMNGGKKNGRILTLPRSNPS

Regarding `CCCN1CCC=C(c2ccc(Nc3nc(Nc4ccccc4C(N)=O)c4cc[nH]c4n3)c(OC)c2)C1` [Example 2, 2-[(2-{[2-(methyloxy)-4-(1-propyl-1,2,5,6-tetrahydro-3-pyridinyl)phenyl]amino}-1H-pyrrolo[2,3-d]pyrimidin-4-yl)amino]benzamide], the IC50 on human IR (hIR) was 0.251 to 1 nM; in assay [1], 100 to 500 nM; on human IGF1R (hIGF1R), 0.251 to 1 nM.
Regarding `CCCN1CCCC(c2ccc(Nc3nc(Nc4ccccc4C(N)=O)c4cc[nH]c4n3)c(OC)c2)C1` (stereo not drawn) [Example 3, 2-[(2-{[2-(methyloxy)-4-(1-propyl-3-piperidinyl)phenyl]amino}-1H-pyrrolo[2,3-d]pyrimidin-4-yl)amino]benzamide], the IC50 was 0.251 to 1 nM against human IR (hIR), less than 100 nM in assay [1] and 0.251 to 1 nM at human IGF1R (hIGF1R).
On to `COc1cc(N2CCN(C(C)C)CC2)ccc1Nc1nc(Nc2ccccc2C(N)=O)c2cc[nH]c2n1` [Example 7, 2-[(2-{[4-[4-(1-methylethyl)-1-piperazinyl]-2-(methyloxy)phenyl]amino}-1H-pyrrolo[2,3-d]pyrimidin-4-yl)amino]benzamide], for which the IC50 is 0.251 to 1 nM on human IR (hIR), 100 to 500 nM in assay [1] and 0.251 to 1 nM on human IGF1R (hIGF1R).
For `COc1ccc(NC(=O)CN(C)C)cc1Nc1nc(Nc2ccccc2C(N)=O)c2cc[nH]c2n1` [Example 15, 2-[(2-{[5-[(N,N-dimethylglycyl)amino]-2-(methyloxy)phenyl]amino}-1H-pyrrolo[2,3-d]pyrimidin-4-yl)amino]benzamide], the IC50 at human IR (hIR) and on human IGF1R (hIGF1R) was 0.251 to 1 nM in each case.
In the case of `CN(C)CC(=O)Nc1ccc(OC(F)(F)F)c(Nc2nc(Nc3ccccc3C(N)=O)c3cc[nH]c3n2)c1` [Example 16, 2-{[2-({5-[(N,N-dimethylglycyl)amino]-2-[(trifluoromethyl)oxy]phenyl}amino)-1H-pyrrolo[2,3-d]pyrimidin-4-yl]amino}benzamide], the values for the IC50 (at human IR (hIR); in assay [1]; at human IGF1R (hIGF1R)) were 0.251 to 1 nM, 100 to 500 nM and 0.251 to 1 nM, respectively.
Regarding `CN(C)CC(=O)Nc1ccc(F)c(Nc2nc(Nc3ccccc3C(N)=O)c3cc[nH]c3n2)c1` [Example 17, 2-{[2-({5-[(N,N-dimethylglycyl)amino]-2-fluorophenyl}amino)-1H-pyrrolo[2,3-d]pyrimidin-4-yl]amino}benzamide], the IC50 at human IR (hIR) and at human IGF1R (hIGF1R) was 0.251 to 1 nM in each case.
For the compound `COc1ccc(C(N)=O)c(Nc2nc(Nc3ccc(N4CCOC[C@@H]4C)cc3OC)nc3[nH]ccc23)c1` [Example 39, 2-[(2-{[4-[(3S)-3-methyl-4-morpholinyl]-2-(methyloxy)phenyl]amino}-1H-pyrrolo[2,3-d]pyrimidin-4-yl)amino]-4-(methyloxy)benzamide], the IC50 on human IR (hIR) was 1.26 to 3.98 nM; on human IGF1R (hIGF1R) it was 5.01 to 200 nM.
With `COc1cc2c(cc1Nc1nc(Nc3cccc(F)c3C(N)=O)c3cc[nH]c3n1)N(C(=O)CN(C)C)CC2` [Example 53, 2-[(2-{[1-(N,N-dimethylglycyl)-5-(methyloxy)-2,3-dihydro-1H-indol-6-yl]amino}-1H-pyrrolo[2,3-d]pyrimidin-4-yl)amino]-6-fluorobenzamide], the values for the IC50 (in assay [1]; at human IGF1R (hIGF1R)) were less than 100 nM and 0.251 to 1 nM, respectively.
For `CCCN1CCC=C(c2ccc(Nc3nc(Nc4ccc(F)cc4C(N)=O)c4cc[nH]c4n3)c(OC)c2)C1` [Example 54, 5-fluoro-2-[(2-{[2-(methyloxy)-4-(1-propyl-1,2,5,6-tetrahydro-3-pyridinyl)phenyl]amino}-1H-pyrrolo[2,3-d]pyrimidin-4-yl)amino]benzamide], the IC50 against human IR (hIR) is 0.251 to 1 nM; in assay [1], 100 to 500 nM; at human IGF1R (hIGF1R), 0.251 to 1 nM.
Take `COc1cc(C2CCN(C(C)C)CC2)ccc1Nc1nc(Nc2ccc(F)cc2C(N)=O)c2cc[nH]c2n1` [Example 58, 5-fluoro-2-[(2-{[4-[1-(1-methylethyl)-4-piperidinyl]-2-(methyloxy)phenyl]amino}-1H-pyrrolo[2,3-d]pyrimidin-4-yl)amino]benzamide]: the results for the IC50 (at human IR (hIR); in assay [1]; on human IGF1R (hIGF1R)) were 0.251 to 1 nM, less than 100 nM and 0.251 to 1 nM, respectively.
In the case of `COc1cc(N2CCC(N3CCOCC3)CC2)ccc1Nc1nc(Nc2cc(F)ccc2C(N)=O)c2cc[nH]c2n1` [Example 78, 4-fluoro-2-{[2-({2-(methyloxy)-4-[4-(4-morpholinyl)-1-piperidinyl]phenyl}amino)-1H-pyrrolo[2,3-d]pyrimidin-4-yl]amino}benzamide], the IC50 against human IR (hIR) is 1.26 to 3.98 nM; in assay [1] it was 100 to 500 nM; on human IGF1R (hIGF1R) it was 0.251 to 1 nM.
For `COc1cc(N2CCOC[C@@H]2C)ccc1Nc1nc(Nc2cc(F)ccc2C(N)=O)c2cc[nH]c2n1` [Example 84, 4-fluoro-2-[(2-{[4-[(3S)-3-methyl-4-morpholinyl]-2-(methyloxy)phenyl]amino}-1H-pyrrolo[2,3-d]pyrimidin-4-yl)amino]benzamide], the IC50 was 0.251 to 1 nM against human IR (hIR), less than 100 nM in assay [1] and 0.251 to 1 nM on human IGF1R (hIGF1R).
Regarding `COc1ccc(OC[C@@H](O)CN(C)C)cc1Nc1nc(Nc2cc(F)ccc2C(N)=O)c2cc[nH]c2n1` [Example 86, 2-[(2-{[5-{[(2S)-3-(dimethylamino)-2-hydroxypropyl]oxy}-2-(methyloxy)phenyl]amino}-1H-pyrrolo[2,3-d]pyrimidin-4-yl)amino]-4-fluorobenzamide], the IC50 against human IR (hIR) was 0.251 to 1 nM; in assay [1], more than 500 nM; at human IGF1R (hIGF1R), 0.251 to 1 nM.
For the compound `COc1cc(N2CCN(C(C)C)CC2)ccc1Nc1nc(Nc2cc(F)cc(F)c2C(N)=O)c2cc[nH]c2n1` [Example 89, 2,4-difluoro-6-[(2-{[4-[4-(1-methylethyl)-1-piperazinyl]-2-(methyloxy)phenyl]amino}-1H-pyrrolo[2,3-d]pyrimidin-4-yl)amino]benzamide], the IC50 was 0.251 to 1 nM against human IR (hIR), less than 100 nM in assay [1] and 0.251 to 1 nM on human IGF1R (hIGF1R).
For the compound `COc1cc(N2CCN(C(C)C)CC2)c(C)cc1Nc1nc(Nc2cc(F)cc(F)c2C(N)=O)c2cc[nH]c2n1` [Example 91, 2,4-difluoro-6-[(2-{[5-methyl-4-[4-(1-methylethyl)-1-piperazinyl]-2-(methyloxy)phenyl]amino}-1H-pyrrolo[2,3-d]pyrimidin-4-yl)amino]benzamide], the IC50 on human IR (hIR) is 1.26 to 3.98 nM; in assay [1], less than 100 nM; on human IGF1R (hIGF1R), 0.251 to 1 nM.
Taken in the same sequence, the figures for `CCCN1CCC(c2ccc(Nc3nc(Nc4cc(F)cc(F)c4C(N)=O)c4cc[nH]c4n3)c(OC)c2)CC1` [Example 92, 2,4-difluoro-6-[(2-{[2-(methyloxy)-4-(1-propyl-4-piperidinyl)phenyl]amino}-1H-pyrrolo[2,3-d]pyrimidin-4-yl)amino]benzamide] were 0.251 to 1 nM, less than 100 nM and 0.251 to 1 nM.
For `COc1ccc(OC[C@@H](O)CN2CCCC2)cc1Nc1nc(Nc2cc(F)c(F)cc2C(N)=O)c2cc[nH]c2n1` [Example 107, 4,5-difluoro-2-[(2-{[5-{[(2S)-2-hydroxy-3-(1-pyrrolidinyl)propyl]oxy}-2-(methyloxy)phenyl]amino}-1H-pyrrolo[2,3-d]pyrimidin-4-yl)amino]benzamide], the IC50 at human IR (hIR) is 0.251 to 1 nM; in assay [1] it was more than 500 nM; at human IGF1R (hIGF1R), 0.251 to 1 nM.
For `COc1cc2c(cc1Nc1nc(Nc3cccc(F)c3C(N)=O)c3cc[nH]c3n1)N(CCN(C)C)CC2` [Example 117, 2-[(2-{[1-[2-(dimethylamino)ethyl]-5-(methyloxy)-2,3-dihydro-1H-indol-6-yl]amino}-1H-pyrrolo[2,3-d]pyrimidin-4-yl)amino]-6-fluorobenzamide], the IC50 was 5.01 to 158 nM against human IR (hIR), more than 500 nM in assay [1] and 5.01 to 200 nM at human IGF1R (hIGF1R).
For `COc1cc2c(cc1Nc1nc(Nc3cccc(F)c3C(N)=O)c3cc[nH]c3n1)N(C(=O)CCN(C)C)CC2` [Example 118, 2-[(2-{[1-(N,N-dimethyl-b-alanyl)-5-(methyloxy)-2,3-dihydro-1H-indol-6-yl]amino}-1H-pyrrolo[2,3-d]pyrimidin-4-yl)amino]-6-fluorobenzamide], in that order: 5.01 to 158 nM, more than 500 nM and 5.01 to 200 nM.
As for `COc1cc2c(cc1Nc1nc(Nc3cc(Cl)cc(F)c3C(N)=O)c3cc[nH]c3n1)N(C(=O)CN(C)C)CC2` [Example 119, 4-chloro-2-[(2-{[1-(N,N-dimethylglycyl)-5-(methyloxy)-2,3-dihydro-1H-indol-6-yl]amino}-1H-pyrrolo[2,3-d]pyrimidin-4-yl)amino]-6-fluorobenzamide], the IC50 against human IR (hIR) was 0.251 to 1 nM; in assay [1] it was less than 100 nM; on human IGF1R (hIGF1R), 0.251 to 1 nM.
With `COc1cc2c(cc1Nc1nc(Nc3cc(F)cc(F)c3C(N)=O)c3cc[nH]c3n1)NCCC2` [Example 220, 2,4-difluoro-6-[(2-{[6-(methyloxy)-1,2,3,4-tetrahydro-7-quinolinyl]amino}-1H-pyrrolo[2,3-d]pyrimidin-4-yl)amino]benzamide], the IC50 in assay [1] is more than 500 nM; at human IGF1R (hIGF1R), 5.01 to 200 nM.
Regarding `CNC(=O)c1c(F)cccc1Nc1nc(Nc2cc3c(cc2OC)CCC(=O)N3)nc2[nH]ccc12` [Example 222, 2-fluoro-N-methyl-6-[(2-{[6-(methyloxy)-2-oxo-1,2,3,4-tetrahydro-7-quinolinyl]amino}-1H-pyrrolo[2,3-d]pyrimidin-4-yl)amino]benzamide], the IC50 in assay [1] was more than 500 nM; at human IGF1R (hIGF1R), 5.01 to 200 nM.
